Data set [1] concerns LPS induced acute lung inflammation. Kind of data set: Example 1: LPS induced acute lung inflammation, interalveolar septa distance. It counts as in vivo, mice. An excerpt: LPS administration is known to promote inflammation through various mechanisms including secretion of pro-inflammatory cytokines, eicosanoids and induction of ROS. This example employed LPS to ascertain the extent of inflammation arising from ROS induced oxidation of H-AA versus D-AA in the lungs of mice. Specifically, four groups of mice were used. The first group was control mice treated with H-LA control mice. The second group of mice received a 6-week course of D-LA. It is understood that in vivo conversion of a portion of both H-LA and D-LA occurs to provide for AA and 13,13-D2-AA respectively. The third group of mice received a 6-week course of H-AA. The fourth group of mice received a 6-week course of D-AA. All groups then received a single intranasal administration of LPS to induce acute lung inflammation. The degree of the inflammatory response was based on the interalveolar septa distance where the larger the distance of the septa, the greater the degree of inflammation. The animals were sacrificed and the interalveolar septa distance was measured. Table 1 provides an average degree of spatial distance for the interalveolar septa for the results of all groups.

The next data set has as its system healthy mice. The following applies: mouse, in vivo. The protocol: Mouse diet was from Research Diets (New Brunswick, NJ) based on fat-free AIN-93G. Fat was added at 11.3% by weight total fat and 0.25% either normal H-AA or D-AA respectively (Table 5).
Male and Female BALB/c and C57BL/6 mice were provided with standard environmental conditions i.e., 22±1° C., 55±5% humidity and 12 h light/dark cycle with free food and water access. At the age of six weeks, animals were split into 8 groups (n=160 total, 20 of each gender) and were continuously fed ad libitum on the diet containing either H-AA or D-AA for 2, 4, 6 or 8 weeks at the daily rate of ca. 5 g of diet per mouse for the duration of the study. The other two groups of animals (n=40, 20 of each gender) received neither PUFA-enriched diets nor LPS served as controls. The body weight and food intake were measured once a week. After completing the appropriate diet course, half of the mice in each group (10 females and 10 males) (i) underwent the procedure of bronchoalveolar lavage (BAL) to accomplish cytological smears, (ii) were subjected to tissue harvesting and collection of colon contents (after humane euthanasia with lethal dose of sodium thiopental, 100 mg/kg intravenously). On the ninth week of this diet course, the other half of the group was administered 1 mg/kg of intranasal (IN) LPS from Escherichia coli O111:B4 (Sigma Aldrich) 24 hours prior to BAL and subsequent euthanasia. 40 D-AA fed animals (20 males, 20 females) were switched to the H-AA diet for washout experiments. […]
Lung, stomach and colon samples were fixed with 4% formaldehyde (freshly prepared from paraformaldehyde), paraffin embedded and cut into 2-4 μm sections. For routine histology, all fixed tissue sections were stained with hematoxylin-eosin (H&E). All slides were evaluated at 10 fields each using a Genetic Pro Bino light microscope (A) and photographed with a digital camera (Delta Optical). Stomach and colon tissue sections were analyzed for signs of active and chronic inflammation, formation of lymph follicles, and hyperplasia of epithelial cells. The severity of lung injury was scored according to lung pathological changes, including interalveolar and perivascular hemorrhages, peri-vascular and peribronchial infiltration, perivascular edema, thickness of alveolar wall, alveolar space value, and emphysematous transformations. Lung tissue samples were additionally stained with commercially available Martius Scarlet Blue (MSB) stain kit (Avantik, USA) for fibrin visualization. The presence of homogeneous fibrin masses of yellow, pink or red color in the lung blood vessels were interpreted as thrombotic masses. […]
Cell free BAL fluid supernatants as well as colon tissue samples were analyzed using commercially available Mouse IL-1B ELISA Kit (R&D systems, Lot P265854, USA) and the Biotek ELx-808 microplate reader (Biotek, USA) according to the instructions recommended by the manufacturer).

As for `[2H]C([2H])(/C=C\CCCCC)/C=C\C([2H])([2H])/C=C\C([2H])([2H])/C=C\CCCC(=O)O` [D-AA, 7,7,10,10,13,13-D6-arachidonic acid], in data set [1] (6-week course, then single intranasal LPS), the “Interalveolar space (average spatial distance for the interalveolar septa)” value amounted to 4.1 μm. For the same molecule, the “reduction in the spatial distance for the interalveolar septa” value in data set [1] (D-LA relative to H-LA, comparator for D-AA not stated) is given as roughly 60%. Moreover, in the data set with healthy mice, the alveolar spaces result is “No relevant changes”; the “average thickness of interalveolar septa, H-AA versus D-AA” value was “did not significantly differ”; the tolerability entry is recorded as “well tolerated without apparent adverse reactions”.

(Values after patent US12576059B2, “Methods and compositions for treatment of inflammatory disease” (priority 2021, dated 2026).)
